Measurements as given in patent US5185347A, “Piperidine compounds and antiulcer composition containing the same” (Meiji Seika Kaisha Ltd., priority 1990, dated 1993).

What was measured:
[1] = test system: Water Immersion Restraint Stress-Induced Ulcer; experiment: Test on Water Immersion Restraint Stress-Induced Ulcer; type: in vivo, Wister male rat; conditions: 30 mg/5 ml/kg-b.w. in 0.5% CMC, 1 hour before stress, water immersion restraint 6 hours, 20 to 22° C., ulcer index = sum of longer diameters (mm); for inhibition in vivo at 30 mg/kg: Rattus norvegicus, read-out: Percent Inhibition on Ulceration
Method: 1) Test on Water Immersion Restraint Stress-Induced Ulcer:
A 11-week-old Wister male rat having been deprived of food for 18 hours was restrained in a cage and immersed chest-deep in water at 20 to 22° C. for 6 hours to impose a stress. The rat taken out of water was sacrificed by cervical dislocation, the stomach removed, 5 ml of a 5% formalin aqueous solution poured into the stomach, and the whole stomach was soaked in the same solution for 30 minutes. The thus fixed sample was opened along the greater curvature. The longer diameter (mm) of ulcers formed was measured with a slide caliper, and the sum was taken as an ulcer index. Each of test compounds shown in Table 1 below was suspended in a 0.5% carboxymethylcellulose (CMC) solution and administered to the rat (test group) at a dose level of 30 mg/5 ml/kg-b.w. 1 hour before imposition of a stress. Only a 0.5% CMC solution (5 ml) was administered to a control group. A percent inhibition of ulceration was obtained from equation: [formula]

Toxicity (oral LD50) = conditions: in vivo, orally administering, species not given
Source text: The compounds of the present invention are of low toxicity.

Ethanol-Induced Ulcer = experiment: Ethanol-Induced Ulcer; type: in vivo, Donryu male rat; conditions: orally, 30 mg/5 ml/kg-b.w. in 0.5% CMC, one hour before 5 ml/kg-b.w. of 100% ethanol
Method: 2) Ethanol-Induced Ulcer:
A Donryu male rat having been deprived of food for 48 hours and of water for 24 hours orally received 5 ml/kg-b.w. of 100% ethanol. One hour later, the rat was sacrificed in the same manner as described in (1) above, the stomach removed and treated in the same manner as above. The test compound (the compound of Example 2) was suspended in a 0.5% CMC solution and orally administered to the rat at a dose of 30 mg/5 ml/kg-b.w. one hour before administration of ethanol.

| Compound | inhibition in vivo at 30 mg/kg [1] | further results |
| --- | --- | --- |
| 5(6)-(2-Acetylamino-2-ethoxycarbonyl)ethyl-l-[2-(2,2,6,6-tetramethylpiperidin-1-yl)]ethyl-2-[2-(2,2,6,6-tetramethylpiperidin-1-yl)ethylthio]benzimidazole [Example 12] |  | Percent Inhibition on Ulceration [1]: 87% |
| COc1ccc2nc(SCCN3C(C)(C)CCCC3(C)C)[nH]c2c1 [Example 1, 5-Methoxy-2-[2-(2,2,6,6-tetramethylpiperidin-1-yl)ethylthio]benzimidazole] | 92% | LD50 (Toxicity (oral LD50)): > 1000 mg/kg |
| CCOC(=O)C(Cc1ccc2[nH]c(SCCN3C(C)(C)CCCC3(C)C)nc2c1)NC(=O)c1ccc(Cl)cc1 (stereo not shown) [Example 2] | 97% | LD50 (Toxicity (oral LD50)): > 1000 mg/kg; inhibition on erosion (Ethanol-Induced Ulcer): 80% |
| CC1(C)CCCC(C)(C)N1CCSc1nc2cc(CC(NC(=O)c3ccc(Cl)cc3)C(N)=O)ccc2[nH]1 (stereo not shown) [Example 3, 5-[2-Carbamoyl-2-(p-chlorobenzoyl)amino]ethyl-2-[2-(2,2,6,6-tetramethylpiperidin-1-yl)ethylthio]benzimidazole] | 62% |  |
| CC1(C)CCCC(C)(C)N1CCSc1nc2cc(CC(NC(=O)c3ccc(Cl)cc3)C(=O)O)ccc2[nH]1 (stereo not shown) [Example 4, 5-[2-Carboxy-2-(p-chlorobenzoyl)amino]ethyl-2-[2-(2,2,6,6-tetramethylpiperidin-1-yl)ethylthio]benzimidazole] | 40% |  |
| CCOC(=O)C(Cc1ccc2[nH]c(SCCN3C(C)(C)CCCC3(C)C)nc2c1)NC(C)=O (stereo not shown) [Example 5, 5-[2-Acetylamino-2-ethoxycarbonyl)ethyl-2-[2-(2,2,6,6-tetramethylpiperidin-1-yl)ethylthio]benzimidazole] | 97% | LD50 (Toxicity (oral LD50)): > 1000 mg/kg |
| Cc1ccc2nc(SCCN3C(C)(C)CCCC3(C)C)[nH]c2c1 [Example 6, 5-Methyl-2-[2-(2,2,6,6-tetramethylpiperidin-1-yl)ethylthio]benzimidazole] | 95% |  |
| CC1(C)CCCC(C)(C)N1CCSc1nc2cc(CO)ccc2[nH]1 [Example 7] | 97% |  |
| COC(=O)c1ccc2[nH]c(SCCN3C(C)(C)CCCC3(C)C)nc2c1 [Example 8] | 98% |  |
| CC1(C)CCCC(C)(C)N1CCSc1nc2ccccc2[nH]1 [Example 9] | 97% |  |
| Cn1c(SCCN2C(C)(C)CCCC2(C)C)nc2ccccc21 [Example 10] | 100% |  |
| CC1(C)CCCC(C)(C)N1CCSc1nc2ccccc2n1Cc1ccccc1 [Example 11] | 95% |  |
